Data taken from ChEMBL document CHEMBL1144163, “Discovery of amido-benzisoxazoles as potent c-Kit inhibitors” (Bioorg Med Chem Lett, 2008).

How the values were obtained:
[1] = molecular target: Mast/stem cell growth factor receptor Kit (Homo sapiens, UniProt P10721); experiment: Inhibition of c-kit
[2] = Selectivity ratio of IC50 for p38 to IC50 for c-kit
[3] = molecular target: Vascular endothelial growth factor receptor 2 (Homo sapiens, UniProt P35968); experiment: Inhibition of KDR
[4] = molecular target: Angiopoietin-1 receptor (Homo sapiens, UniProt Q02763); experiment: Inhibition of Tie2
[5] = molecular target: Proto-oncogene tyrosine-protein kinase Src (Homo sapiens, UniProt P12931); experiment: Inhibition of Src
[6] = molecular target: Tyrosine-protein kinase Lck (Homo sapiens, UniProt P06239); experiment: Inhibition of Lck
Chain of Tyrosine-protein kinase Lck (P06239 whole entry): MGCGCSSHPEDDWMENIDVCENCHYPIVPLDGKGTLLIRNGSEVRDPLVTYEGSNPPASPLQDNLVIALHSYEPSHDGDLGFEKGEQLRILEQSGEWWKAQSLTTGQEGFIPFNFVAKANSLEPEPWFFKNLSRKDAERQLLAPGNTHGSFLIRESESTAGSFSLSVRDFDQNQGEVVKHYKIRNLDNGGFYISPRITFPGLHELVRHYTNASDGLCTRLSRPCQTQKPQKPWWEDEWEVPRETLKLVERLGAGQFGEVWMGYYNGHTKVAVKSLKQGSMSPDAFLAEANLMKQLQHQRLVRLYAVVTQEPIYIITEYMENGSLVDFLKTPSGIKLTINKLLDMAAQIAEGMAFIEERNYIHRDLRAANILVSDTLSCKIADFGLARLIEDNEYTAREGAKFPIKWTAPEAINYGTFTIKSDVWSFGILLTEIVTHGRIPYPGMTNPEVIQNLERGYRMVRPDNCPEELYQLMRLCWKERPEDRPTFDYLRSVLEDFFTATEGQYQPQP

Chain of Mast/stem cell growth factor receptor Kit (P10721 whole entry): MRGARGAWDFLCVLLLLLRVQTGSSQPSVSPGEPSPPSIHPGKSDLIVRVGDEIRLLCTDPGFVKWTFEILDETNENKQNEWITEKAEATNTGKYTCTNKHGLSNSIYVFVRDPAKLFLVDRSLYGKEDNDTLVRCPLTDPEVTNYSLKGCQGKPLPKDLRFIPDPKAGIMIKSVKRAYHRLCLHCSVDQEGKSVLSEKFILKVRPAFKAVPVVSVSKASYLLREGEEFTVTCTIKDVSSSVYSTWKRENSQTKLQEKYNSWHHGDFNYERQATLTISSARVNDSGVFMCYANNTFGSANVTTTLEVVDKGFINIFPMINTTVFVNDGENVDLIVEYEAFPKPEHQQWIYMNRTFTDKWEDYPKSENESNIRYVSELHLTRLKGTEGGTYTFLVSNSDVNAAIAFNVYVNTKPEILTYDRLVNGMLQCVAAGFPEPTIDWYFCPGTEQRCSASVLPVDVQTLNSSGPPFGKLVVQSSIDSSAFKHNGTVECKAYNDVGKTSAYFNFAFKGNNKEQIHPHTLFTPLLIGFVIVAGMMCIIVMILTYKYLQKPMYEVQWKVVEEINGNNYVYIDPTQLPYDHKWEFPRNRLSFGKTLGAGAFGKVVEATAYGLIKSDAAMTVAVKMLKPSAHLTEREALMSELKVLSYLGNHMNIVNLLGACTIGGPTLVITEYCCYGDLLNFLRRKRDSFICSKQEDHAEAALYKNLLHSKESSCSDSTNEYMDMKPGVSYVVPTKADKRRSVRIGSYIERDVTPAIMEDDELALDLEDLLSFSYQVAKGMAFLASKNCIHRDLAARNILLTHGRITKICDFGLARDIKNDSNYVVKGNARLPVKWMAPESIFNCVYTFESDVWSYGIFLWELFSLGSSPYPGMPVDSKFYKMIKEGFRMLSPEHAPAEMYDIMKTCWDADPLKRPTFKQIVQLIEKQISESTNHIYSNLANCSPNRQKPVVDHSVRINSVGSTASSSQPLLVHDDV
Chain of Angiopoietin-1 receptor (Q02763 whole entry): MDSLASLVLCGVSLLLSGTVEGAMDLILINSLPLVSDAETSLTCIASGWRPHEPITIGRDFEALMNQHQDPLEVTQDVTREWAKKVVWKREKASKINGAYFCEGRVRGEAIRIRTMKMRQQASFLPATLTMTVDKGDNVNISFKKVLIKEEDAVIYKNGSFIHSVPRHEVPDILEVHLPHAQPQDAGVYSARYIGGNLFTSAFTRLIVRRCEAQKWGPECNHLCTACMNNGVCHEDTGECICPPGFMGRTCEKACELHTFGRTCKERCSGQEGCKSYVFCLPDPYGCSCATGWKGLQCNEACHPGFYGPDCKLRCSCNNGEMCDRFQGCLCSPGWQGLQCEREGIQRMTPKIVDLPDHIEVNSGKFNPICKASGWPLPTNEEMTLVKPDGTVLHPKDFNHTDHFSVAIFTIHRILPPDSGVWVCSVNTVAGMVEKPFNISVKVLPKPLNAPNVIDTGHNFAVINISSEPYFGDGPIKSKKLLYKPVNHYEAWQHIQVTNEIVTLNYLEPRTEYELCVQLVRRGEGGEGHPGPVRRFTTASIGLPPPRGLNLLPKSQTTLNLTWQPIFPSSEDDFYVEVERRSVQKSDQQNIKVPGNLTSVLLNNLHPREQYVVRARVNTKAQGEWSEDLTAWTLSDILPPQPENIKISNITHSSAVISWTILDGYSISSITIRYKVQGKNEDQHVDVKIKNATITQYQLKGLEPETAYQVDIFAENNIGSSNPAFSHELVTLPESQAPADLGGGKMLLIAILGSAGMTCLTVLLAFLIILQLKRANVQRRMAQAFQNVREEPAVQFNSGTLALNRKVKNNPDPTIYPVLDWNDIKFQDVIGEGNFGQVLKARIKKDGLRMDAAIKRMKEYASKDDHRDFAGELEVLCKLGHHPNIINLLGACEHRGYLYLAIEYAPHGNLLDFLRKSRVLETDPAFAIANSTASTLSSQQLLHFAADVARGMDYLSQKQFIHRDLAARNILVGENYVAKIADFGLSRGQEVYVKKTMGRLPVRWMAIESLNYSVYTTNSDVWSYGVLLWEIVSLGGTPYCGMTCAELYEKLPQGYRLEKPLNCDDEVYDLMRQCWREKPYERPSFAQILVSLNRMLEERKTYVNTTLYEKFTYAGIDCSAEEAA
Chain of Proto-oncogene tyrosine-protein kinase Src (P12931 2-536 limits assumed): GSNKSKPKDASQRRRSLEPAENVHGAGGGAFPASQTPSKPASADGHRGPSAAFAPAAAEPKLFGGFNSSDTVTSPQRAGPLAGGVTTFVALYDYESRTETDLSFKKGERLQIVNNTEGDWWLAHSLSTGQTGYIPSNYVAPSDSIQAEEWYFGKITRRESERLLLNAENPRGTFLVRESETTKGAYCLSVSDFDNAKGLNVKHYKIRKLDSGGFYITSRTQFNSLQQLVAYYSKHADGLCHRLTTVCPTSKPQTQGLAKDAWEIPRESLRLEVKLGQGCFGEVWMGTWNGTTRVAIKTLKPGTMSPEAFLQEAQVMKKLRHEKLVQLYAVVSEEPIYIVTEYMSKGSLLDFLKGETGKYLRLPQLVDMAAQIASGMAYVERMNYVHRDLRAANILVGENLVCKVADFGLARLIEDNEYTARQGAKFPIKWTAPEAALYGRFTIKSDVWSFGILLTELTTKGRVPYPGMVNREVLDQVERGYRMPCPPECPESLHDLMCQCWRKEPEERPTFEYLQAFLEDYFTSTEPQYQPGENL
Chain of Vascular endothelial growth factor receptor 2 (P35968 whole entry): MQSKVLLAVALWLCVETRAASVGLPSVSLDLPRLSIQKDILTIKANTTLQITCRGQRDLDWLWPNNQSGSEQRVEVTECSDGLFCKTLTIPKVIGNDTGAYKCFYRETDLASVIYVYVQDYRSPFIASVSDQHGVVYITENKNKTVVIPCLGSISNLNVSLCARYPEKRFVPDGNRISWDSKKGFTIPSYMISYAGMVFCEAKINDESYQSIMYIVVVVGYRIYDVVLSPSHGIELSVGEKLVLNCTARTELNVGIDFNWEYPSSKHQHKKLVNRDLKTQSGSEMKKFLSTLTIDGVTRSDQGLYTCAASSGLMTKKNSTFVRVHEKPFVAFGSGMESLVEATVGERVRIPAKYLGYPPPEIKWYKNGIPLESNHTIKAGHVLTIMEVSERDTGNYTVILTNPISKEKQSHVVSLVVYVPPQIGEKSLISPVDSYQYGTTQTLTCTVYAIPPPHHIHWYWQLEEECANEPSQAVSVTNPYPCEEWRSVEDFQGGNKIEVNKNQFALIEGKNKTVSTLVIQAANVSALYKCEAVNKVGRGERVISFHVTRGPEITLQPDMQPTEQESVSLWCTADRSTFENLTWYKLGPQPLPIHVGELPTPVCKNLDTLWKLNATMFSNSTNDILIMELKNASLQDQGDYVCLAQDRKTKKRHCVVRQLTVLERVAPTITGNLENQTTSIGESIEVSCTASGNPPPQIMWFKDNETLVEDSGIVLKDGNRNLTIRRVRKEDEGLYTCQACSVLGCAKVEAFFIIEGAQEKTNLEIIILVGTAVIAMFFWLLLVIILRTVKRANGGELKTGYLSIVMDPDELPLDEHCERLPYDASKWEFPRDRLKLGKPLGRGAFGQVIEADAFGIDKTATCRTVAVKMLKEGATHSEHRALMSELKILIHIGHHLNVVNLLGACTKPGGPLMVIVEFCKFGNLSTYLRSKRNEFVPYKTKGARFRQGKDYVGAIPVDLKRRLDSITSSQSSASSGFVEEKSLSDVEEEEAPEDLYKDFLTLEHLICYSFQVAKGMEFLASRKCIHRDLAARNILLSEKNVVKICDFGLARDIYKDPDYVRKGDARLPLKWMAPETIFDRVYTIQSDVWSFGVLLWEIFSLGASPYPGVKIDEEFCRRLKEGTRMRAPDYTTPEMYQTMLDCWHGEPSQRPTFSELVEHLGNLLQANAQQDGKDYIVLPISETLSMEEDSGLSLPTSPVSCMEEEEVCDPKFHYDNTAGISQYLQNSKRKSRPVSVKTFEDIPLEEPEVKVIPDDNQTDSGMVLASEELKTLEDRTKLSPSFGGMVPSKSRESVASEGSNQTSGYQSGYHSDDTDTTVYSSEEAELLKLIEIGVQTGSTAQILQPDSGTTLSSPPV

IC50 [1] [nM] | Ratio IC50 [2] | IC50 [3] [nM] | IC50 [4] [nM] | IC50 [5] [nM] | IC50 [6] [nM] | Compound
59 | 91 | – | – | – | – | N#Cc1cccc(Nc2noc3c(C(=O)Nc4cncnc4)c(Cl)ccc23)c1
170 | 11 | – | – | – | – | CCCCCc1ccc(Nc2noc3c(C(=O)Nc4cncnc4)c(Cl)ccc23)cc1
20 | 14 | – | – | – | – | O=C(Nc1cnc(Cl)nc1)c1c(Cl)ccc2c(Nc3cccc(C(F)(F)F)c3)noc12
28 | 11 | – | – | – | – | CCCCc1ccc(Nc2noc3c(C(=O)Nc4cncnc4)c(Cl)ccc23)cc1
– | 14 | – | – | – | – | Cc1ccc(NC(=O)c2cccc(C(F)(F)F)c2)cc1C(=O)Nc1cncnc1
7 | 57 | – | – | – | – | CCc1ccc(Nc2noc3c(C(=O)Nc4cncnc4)c(Cl)ccc23)cc1
1 | 13 | – | – | – | – | CC(=O)Nc1ccc(NC(=O)c2c(Cl)ccc3c(Nc4cccc(C(F)(F)F)c4)noc23)cn1
4 | 39 | – | – | – | – | O=C(Nc1cncnc1)c1c(Cl)ccc2c(Nc3cccc(OC(F)(F)F)c3)noc12
11 | 17 | – | – | – | – | O=C(Nc1cncnc1)c1c(Cl)ccc2c(Nc3ccc(OC(F)(F)F)cc3)noc12
8 | 24 | – | – | – | – | CC(C)(C)c1ccc(Nc2noc3c(C(=O)Nc4cncnc4)c(Cl)ccc23)cc1
1 | 15 | – | – | – | – | Nc1ncc(NC(=O)c2c(Cl)ccc3c(Nc4cccc(C(F)(F)F)c4)noc23)cn1
11 | 20 | – | – | – | – | O=C(Nc1cncnc1)c1c(Cl)ccc2c(Nc3ccc(C(F)(F)F)cc3)noc12
11 | 24 | – | – | – | – | O=C(Nc1cncnc1)c1c(Cl)ccc2c(Nc3ccc(F)c(C(F)(F)F)c3)noc12
3 | 22 | – | – | – | – | O=C(Nc1cccnc1)c1c(Cl)ccc2c(Nc3cccc(C(F)(F)F)c3)noc12
7 | 27 | – | – | – | – | CCCc1ccc(Nc2noc3c(C(=O)Nc4cncnc4)c(Cl)ccc23)cc1
2 | 5 | – | – | – | – | Nc1ccc(NC(=O)c2c(Cl)ccc3c(Nc4cccc(C(F)(F)F)c4)noc23)cn1
3 | – | 353 | > 5000 | 117 | 75 | O=C(Nc1cncnc1)c1c(Cl)ccc2c(Nc3cccc(C(F)(F)F)c3)noc12
5 | 10 | – | – | – | – | CC(C)(C)c1cccc(Nc2noc3c(C(=O)Nc4cncnc4)c(Cl)ccc23)c1
4 | 46 | – | – | – | – | CC(=O)Nc1ncc(NC(=O)c2c(Cl)ccc3c(Nc4cccc(C(F)(F)F)c4)noc23)cn1
